Assay results taken from PubChem BioAssay AID248 (DTP/NCI, 2004).
Toxic doses and inconclusive results are not listed.

Test system: L1210 leukemia ip in BDF1 mice, survival T/C
Experiment: NCI In Vivo Anticancer Drug Screen. Data for tumor model L1210 Leukemia (intraperitoneal) in B6D2F1 (BDF1) mice
Details: endpoint: mean survival time, higher = longer survival
Protocol: The antitumor activity of compounds was measured in mice bearing transplantable tumors. Survival or tumor size were measured and the results are expressed as the measurement made in the treated group (T) divided by the measurement made in the vehicle treated control group (C). The tumor model used in this assay is L1210 Leukemia (intraperitoneal) in B6D2F1 (BDF1) mice

[1] = dose: 100.0 mg/kg/injection, schedule: Q01DX009 (ip), vehicle: Klucel (hydroxypropylcellulose) (HPC)
[2] = dose: 100.0 mg/kg/injection, schedule: Q04DX003 (ip), vehicle: Klucel (hydroxypropylcellulose) (HPC)
[3] = dose: 200.0 mg/kg/injection, schedule: Q01DX009 (ip), vehicle: Klucel (hydroxypropylcellulose) (HPC)
[4] = dose: 200.0 mg/kg/injection, schedule: Q04DX003 (ip), vehicle: Klucel (hydroxypropylcellulose) (HPC)
[5] = dose: 400.0 mg/kg/injection, schedule: Q04DX003 (ip), vehicle: Klucel (hydroxypropylcellulose) (HPC)
[6] = dose: 100.0 mg/kg/injection, schedule: Q04DX003 (ip), vehicle: saline with Tween-80
[7] = dose: 200.0 mg/kg/injection, schedule: Q04DX003 (ip), vehicle: saline with Tween-80
[8] = dose: 400.0 mg/kg/injection, schedule: Q04DX003 (ip), vehicle: saline with Tween-80
[9] = dose: 100.0 mg/kg/injection, schedule: Q01DX009 (ip), vehicle: saline with Tween-80
[10] = dose: 200.0 mg/kg/injection, schedule: Q01DX009 (ip), vehicle: saline with Tween-80
[11] = dose: 100.0 mg/kg/injection, schedule: Q01DX001 (ip), vehicle: saline
[12] = dose: 200.0 mg/kg/injection, schedule: Q01DX001 (ip), vehicle: saline
[13] = dose: 400.0 mg/kg/injection, schedule: Q01DX001 (ip), vehicle: saline
[14] = dose: 100.0 mg/kg/injection, schedule: Q01DX009 (ip), vehicle: saline
[15] = dose: 200.0 mg/kg/injection, schedule: Q01DX009 (ip), vehicle: saline
[16] = dose: 25.0 mg/kg/injection, schedule: Q01DX001 (ip), vehicle: Klucel (hydroxypropylcellulose) (HPC)
[17] = dose: 50.0 mg/kg/injection, schedule: Q01DX001 (ip), vehicle: Klucel (hydroxypropylcellulose) (HPC)
[18] = dose: 100.0 mg/kg/injection, schedule: Q01DX001 (ip), vehicle: Klucel (hydroxypropylcellulose) (HPC)
[19] = dose: 25.0 mg/kg/injection, schedule: Q01DX009 (ip), vehicle: saline with Tween-80
[20] = dose: 50.0 mg/kg/injection, schedule: Q01DX009 (ip), vehicle: saline with Tween-80
[21] = dose: 100.0 mg/kg/injection, schedule: Q01DX001 (ip), vehicle: saline with Tween-80

For CN(CCC(=O)c1cccc2ccccc12)Cc1ccccc1, the T/C (dose: 50.0 mg/kg/injection, schedule: Q01DX009 (ip), vehicle: Klucel (hydroxypropylcellulose) (HPC)) was 98 % of control, the T/C [1] was 97 % of control and the T/C [2] was 100 % of control. For the same compound, the T/C [3] was 92 % of control, the T/C [4] was 91 % of control and the T/C (dose: 400.0 mg/kg/injection, schedule: Q01DX009 (ip), vehicle: Klucel (hydroxypropylcellulose) (HPC)) was 95 % of control. For the same compound, the T/C [5] was 100 % of control.

In the case of CCC/C=[CH]/[Hg][Cl], the T/C (dose: 6.25 mg/kg/injection, schedule: Q01DX009 (ip), vehicle: other) was 93 % of control, the T/C (dose: 6.25 mg/kg/injection, schedule: Q04DX003 (ip), vehicle: saline sonified) was 95 % of control and the T/C (dose: 12.5 mg/kg/injection, schedule: Q01DX009 (ip), vehicle: other) was 94 % of control. For the same compound, the T/C (dose: 12.5 mg/kg/injection, schedule: Q04DX003 (ip), vehicle: saline sonified) was 95 % of control, the T/C (dose: 25.0 mg/kg/injection, schedule: Q01DX009 (ip), vehicle: other) was 97 % of control and the T/C (dose: 25.0 mg/kg/injection, schedule: Q04DX003 (ip), vehicle: saline sonified) was 106 % of control.

For O=S(=O)(c1ccccc1)c1ccccc1, the T/C [2] was 104 % of control, the T/C [6] was 95 % of control and the T/C [4] was 111 % of control. For the same compound, the T/C [7] was 103 % of control, the T/C [5] was 87 % of control and the T/C [8] was 89 % of control.

In the case of CCc1cc(CC)c(/C(Cl)=C/C(=O)NCC(=O)O)c(CC)c1Br, the T/C (dose: 75.0 mg/kg/injection, schedule: Q04DX003 (ip), vehicle: Klucel (hydroxypropylcellulose) (HPC)) was 95 % of control, the T/C (dose: 150.0 mg/kg/injection, schedule: Q04DX003 (ip), vehicle: Klucel (hydroxypropylcellulose) (HPC)) was 93 % of control and the T/C (dose: 300.0 mg/kg/injection, schedule: Q04DX003 (ip), vehicle: Klucel (hydroxypropylcellulose) (HPC)) was 87 % of control.

For O=NN(CCF)C(=O)NC1CCSc2ccccc21 (centres undefined), the T/C (dose: 6.0 mg/kg/injection, schedule: Q01DX001 (ip), vehicle: other) was 109 % of control, the T/C (dose: 9.0 mg/kg/injection, schedule: Q01DX001 (ip), vehicle: other) was 120 % of control and the T/C (dose: 20.0 mg/kg/injection, schedule: Q01DX001 (ip), vehicle: other) was 161 % of control. For the same compound, the T/C (dose: 30.0 mg/kg/injection, schedule: Q01DX001 (ip), vehicle: other) was 289 % of control.

With O=C(C1CC2CCC1C2)C1CC2CCC1C2 (centres undefined) the T/C [9] was 98 % of control, the T/C [2] was 97 % of control and the T/C [10] was 95 % of control. For the same compound, the T/C [4] was 100 % of control, the T/C (dose: 400.0 mg/kg/injection, schedule: Q01DX009 (ip), vehicle: saline with Tween-80) was 96 % of control and the T/C [5] was 100 % of control.

With O=C(OCc1ccc([N+](=O)[O-])o1)c1ccc(Cl)cc1 the T/C [11] was 97 % of control, the T/C [12] was 101 % of control and the T/C [13] was 92 % of control.

With Cc1ccc2ccc(-c3ccccc3)nc2c1 the T/C [11] was 96 % of control, the T/C [14] was 93 % of control and the T/C [12] was 105 % of control. For the same compound, the T/C [15] was 90 % of control, the T/C [13] was 109 % of control and the T/C (dose: 400.0 mg/kg/injection, schedule: Q01DX009 (ip), vehicle: saline) was 92 % of control.

CCN(CC)CCO[C@H]1CC[C@@]2(C)C(=CC[C@@H]3[C@@H]2CC[C@]2(C)C(=O)CC[C@@H]32)C1 was tested, and the T/C (dose: 50.0 mg/kg/injection, schedule: Q01DX001 (sc), vehicle: steriod suspending solution) was 101 % of control and the T/C (dose: 100.0 mg/kg/injection, schedule: Q01DX001 (sc), vehicle: steriod suspending solution) was 90 % of control.

With O=C(CCCC(=O)N/N=C/c1cccc([N+](=O)[O-])c1)N/N=C\c1cccc([N+](=O)[O-])c1 the T/C (dose: 50.0 mg/kg/injection, schedule: Q01DX001 (ip), vehicle: saline) was 101 % of control, the T/C [11] was 95 % of control and the T/C [12] was 95 % of control. For the same compound, the T/C [13] was 91 % of control.

With CC(O)CN(CC(C)O)c1ccccc1 (centres undefined) the T/C [9] was 102 % of control, the T/C [6] was 102 % of control and the T/C [10] was 94 % of control. For the same compound, the T/C [7] was 103 % of control and the T/C [8] was 101 % of control.

In the case of Nc1ccc(Cc2cc(=O)[nH]c(=O)[nH]2)cc1[N+](=O)[O-], the T/C [16] was 98 % of control, the T/C [17] was 107 % of control and the T/C [18] was 88 % of control. For the same compound, the T/C (dose: 200.0 mg/kg/injection, schedule: Q01DX001 (ip), vehicle: Klucel (hydroxypropylcellulose) (HPC)) was 88 % of control.

With N=c1c(-c2ccccc2)cc2ccccc2n1O the T/C (dose: 75.0 mg/kg/injection, schedule: Q01DX001 (ip), vehicle: other) was 103 % of control, the T/C (dose: 150.0 mg/kg/injection, schedule: Q01DX001 (ip), vehicle: other) was 101 % of control and the T/C (dose: 300.0 mg/kg/injection, schedule: Q01DX001 (ip), vehicle: other) was 98 % of control.

With Cc1[nH]c(=O)[nH]c(=O)c1NCCO the T/C (dose: 100.0 mg/kg/injection, schedule: Q01DX009 (ip), vehicle: water) was 91 % of control, the T/C (dose: 100.0 mg/kg/injection, schedule: Q04DX003 (ip), vehicle: water) was 101 % of control and the T/C (dose: 200.0 mg/kg/injection, schedule: Q01DX009 (ip), vehicle: water) was 96 % of control. The T/C (dose: 200.0 mg/kg/injection, schedule: Q04DX003 (ip), vehicle: water) was 103 % of control, the T/C (dose: 400.0 mg/kg/injection, schedule: Q01DX009 (ip), vehicle: water) was 102 % of control and the T/C (dose: 400.0 mg/kg/injection, schedule: Q04DX003 (ip), vehicle: water) was 103 % of control.

For Cc1cc(O)[nH]c(=O)c1, the T/C (dose: 5.0 mg/kg/injection, schedule: Q01DX001 (ip), vehicle: saline) was 105 % of control, the T/C (dose: 10.0 mg/kg/injection, schedule: Q01DX001 (ip), vehicle: saline) was 105 % of control and the T/C (dose: 20.0 mg/kg/injection, schedule: Q01DX001 (ip), vehicle: saline) was 100 % of control. The T/C (dose: 40.0 mg/kg/injection, schedule: Q01DX001 (ip), vehicle: saline) was 105 % of control and the T/C (dose: 80.0 mg/kg/injection, schedule: Q01DX001 (ip), vehicle: saline) was 100 % of control.

NC(=O)c1ncc(-c2ccccc2)[nH]c1=O was tested, and the T/C [14] was 105 % of control and the T/C [15] was 92 % of control.

For CCOC(=O)C(CCSC(C)=O)SC(C)=O (centres undefined), the T/C [19] was 94 % of control, the T/C [20] was 96 % of control and the T/C [9] was 89 % of control. The T/C [6] was 95 % of control and the T/C [7] was 92 % of control.

In the case of CCOC(=O)Nc1cc2c(c(NC(=O)OCC)n1)N=C(CN(C)c1ccccc1)CN2, the T/C (dose: 12.5 mg/kg/injection, schedule: Q01DX009 (ip), vehicle: saline with Tween-80) was 100 % of control, the T/C [19] was 105 % of control and the T/C [20] was 114 % of control. For the same compound, the T/C (dose: 88.0 mg/kg/injection, schedule: Q01DX001 (ip), vehicle: saline with Tween-80) was 105 % of control, the T/C [21] was 106 % of control and the T/C (dose: 133.0 mg/kg/injection, schedule: Q01DX001 (ip), vehicle: saline with Tween-80) was 97 % of control. The T/C (dose: 200.0 mg/kg/injection, schedule: Q01DX001 (ip), vehicle: saline with Tween-80) was 113 % of control.

With CCCCC(/C=C1/CCCCC1=O)CC (centres undefined) the T/C [1] was 97 % of control, the T/C [2] was 92 % of control and the T/C [3] was 97 % of control. The T/C [4] was 103 % of control and the T/C [5] was 97 % of control.

For CSc1ccccc1N=Cc1cc(Cl)ccc1O, the T/C [21] was 90 % of control.

For O=S(=O)(c1ccccc1)N1CN(S(=O)(=O)c2ccccc2)CN(S(=O)(=O)c2ccccc2)C1, the T/C (dose: 100.0 mg/kg/injection, schedule: Q04DX002 (ip), vehicle: Klucel (hydroxypropylcellulose) (HPC)) was 93 % of control, the T/C (dose: 200.0 mg/kg/injection, schedule: Q04DX002 (ip), vehicle: Klucel (hydroxypropylcellulose) (HPC)) was 100 % of control and the T/C (dose: 400.0 mg/kg/injection, schedule: Q04DX002 (ip), vehicle: Klucel (hydroxypropylcellulose) (HPC)) was 96 % of control.

O=C(CC(=O)OCc1ccc([N+](=O)[O-])cc1)OCc1ccc([N+](=O)[O-])cc1 was tested, and the T/C [16] was 104 % of control, the T/C [17] was 95 % of control and the T/C [18] was 92 % of control.

In the case of Cc1cc(CC(=O)c2ccccc2)[nH]c(=O)c1, the T/C [11] was 103 % of control, the T/C [12] was 101 % of control and the T/C [13] was 101 % of control.
